Results reported in patent US20240158384A1, “CB2 RECEPTOR AGONISTS” (The Board of Trustees of the Leland Stanford Junior …, priority 2020, published 2024).
Entries after “also recorded” stand apart in the source; their conditions may differ.

Experiments:
[1] = system: Male C57Bl6J mice; assay: Amphetamine-induced hyperactivity test; format: in vivo, mouse; conditions: compound i.p. 30 min before AMPH 2 mg/kg i.p., vs vehicle
Protocol: Male C57Bl6J mice were evaluated in an activity chamber apparatus for the amphetamine-induced hyperactivity test. […] To determine the effects of Compound 22 on amphetamine-induced hyperactivity, mice were placed in the activity chamber for a 30 min baseline period. At the end of that period, mice were removed from the chamber, dosed intraperitoneally with Compound 22 (1 mg/kg, 3 mg/kg, or 10 mg/kg) or vehicle and returned to the home cage. Thirty minutes after dosing, mice were dosed (ip) with amphetamine (AMPH, 2 mg/kg) and immediately placed into the activity chamber for a one-hour post-dose session.

[2] = system: 168 GPCRs; assay: Broad screening panel gpcrMAX; format: cell-based; conditions: gpcrMAX at 70 nM against 168 GPCRs
Protocol: (§1) Detailed characterization data was collected for Compound 22. Primary assays were carried out according to Examples 2 and 3, while other assays were carried out according to standard methods.

[3] = target: T1, GPR18 (Homo sapiens, UniProt Q14330); assay: Off-target activity GPR18 (agonist, antagonist, PAM modes); format: cell-based
T1 sequence (Q14330 1-331): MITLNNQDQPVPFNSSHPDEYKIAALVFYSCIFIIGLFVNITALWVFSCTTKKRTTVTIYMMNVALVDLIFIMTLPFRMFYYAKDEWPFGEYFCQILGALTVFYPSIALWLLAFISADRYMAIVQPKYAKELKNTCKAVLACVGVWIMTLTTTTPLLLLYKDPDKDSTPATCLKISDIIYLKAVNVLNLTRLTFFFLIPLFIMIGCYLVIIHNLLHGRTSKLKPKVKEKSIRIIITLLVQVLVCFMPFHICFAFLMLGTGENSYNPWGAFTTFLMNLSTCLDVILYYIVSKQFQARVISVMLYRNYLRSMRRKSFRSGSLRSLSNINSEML
Protocol: as §1

[4] = target: human CB2R (Homo sapiens, UniProt P34972); assay: cAMP Hunter eXpress GPCR assay, human CB2: inhibition of forskolin-stimulated cAMP in CHO cells; format: cell-based; set-up: host or cells: CHO cells
Chain of human CB2R (P34972 whole entry): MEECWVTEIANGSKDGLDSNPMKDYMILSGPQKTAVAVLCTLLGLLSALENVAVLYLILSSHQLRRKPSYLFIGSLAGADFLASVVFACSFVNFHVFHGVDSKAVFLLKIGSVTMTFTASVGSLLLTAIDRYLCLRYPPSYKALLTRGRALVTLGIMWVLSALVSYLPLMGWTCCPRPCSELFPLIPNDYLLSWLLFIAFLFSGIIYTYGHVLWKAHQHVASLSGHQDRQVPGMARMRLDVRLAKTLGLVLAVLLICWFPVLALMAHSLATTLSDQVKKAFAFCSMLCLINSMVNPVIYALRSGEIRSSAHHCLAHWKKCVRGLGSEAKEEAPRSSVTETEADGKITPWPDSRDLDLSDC
Protocol: Briefly, cAMP Hunter eXpress Cells were seeded 18-24 h prior to the in a 96-well tissue culture treated assay plate and incubated in 5% CO2 at 37° C. in a humidified incubator. After removal of cell media, agonist compound and forskolin prepared in cell assay buffer was added and incubated at 37° C. The CB1 cAMP assay was stimulated with 20 μM final concentration of forskolin with 40 minutes incubation time. The CB2 cAMP assay was stimulated with 25 μM final concentration of forskolin with 35 minutes incubation time. The assay was stopped by incubation with antibody and working solution for 1 h at room temperature. After over 3 h incubation at room temperature in the dark with enzyme acceptor solution, chemiluminescence was measured on a CLARIOstar plate reader (BMG LABTECH Inc., Cary, NC, USA).

[5] = system: Male C57Bl6J mice; assay: Spontaneous locomotor activity in activity chamber; format: in vivo, mouse; conditions: mice, compound alone i.p., 90 minutes after dosing, vs vehicle
[6] = target: GPR55 (Homo sapiens, UniProt Q9Y2T6); assay: Off-target activity GPR55 (agonist, antagonist, PAM modes); format: cell-based
Chain of GPR55 (Q9Y2T6 whole entry, species assumed): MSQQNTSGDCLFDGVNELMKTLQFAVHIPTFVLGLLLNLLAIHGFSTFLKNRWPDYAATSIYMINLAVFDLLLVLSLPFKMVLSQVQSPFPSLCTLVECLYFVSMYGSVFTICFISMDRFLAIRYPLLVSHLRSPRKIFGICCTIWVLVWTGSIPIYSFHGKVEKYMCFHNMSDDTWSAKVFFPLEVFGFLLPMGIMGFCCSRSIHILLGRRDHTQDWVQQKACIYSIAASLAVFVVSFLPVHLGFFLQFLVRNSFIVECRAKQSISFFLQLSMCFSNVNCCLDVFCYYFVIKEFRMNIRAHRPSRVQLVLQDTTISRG
Protocol: as §1

[7] = system: DA response to reward; assay: GRAB-DA fiber photometry during operant task for sucrose reward; format: in vivo, mouse; conditions: injected 30 min before task, n=3, vs vehicle
Protocol: In a second experiment, the same mice (n=3) were trained to nose poke a dedicated port to gain access to sucrose reward. During the task, GRAB-DA was used to measure DA release in response to reward. After ˜2 weeks of training, the effect of Compound 22 vs. vehicle on the DA response to reward was examined. On the first day, either drug or vehicle was injected followed by waiting 30 min, and then recording DA during the task. The order of drug vs. vehicle was counterbalanced between mice. […] Thus, Compound 22 appears to be capable of modulating both spontaneous and reward-related DA release.

SMILES: CC(C)(CO)c1cc(NC(=O)N2CCCN2c2ccc(C(F)(F)F)cc2)no1 [Compound 22, N-(5-(1-hydroxy-2-methylpropan-2-yl)isoxazol-3-yl)-2-(4-(trifluoromethyl)phenyl)pyrazolidine-1-carboxamide]
- Amphetamine-induced hyperactivity [1]: reduces the hyperactivity induced by AMPH compared to vehicle controls, with significant reduction at 10 mg/kg; also recorded: able to reduce hyperactivity at doses as low as 0.1 mg/kg, i.p
- Activity in broad screening panel [2]: No significant off
- EC50 [3]: > 10 µM
- IC50 [3]: > 10 µM
- EC50 ([4]; Activity in primary assay: CB2 EC50, Table 6, hCB2 cAMP, agonist mode, mean of n = 3-5 expts on ≥2 batches): 0.067 µM
- Selectivity (related family) ([4]; CB1/CB2 cAMP): 150 fold selectivity
- Selectivity (pathway) ([4]; CB2 cAMP/CB2 beta-arrestin): 9 fold selectivity
- CB2 agonist character (in words) ([4]; cAMP assay, CP-55940 as full agonist control): potent agonists of CB2
- Selectivity for CB2 over CB1 (in words) ([4]; cAMP assays hCB1 vs hCB2): selective for CB2 over CB1
- Distance moved / spontaneous locomotor activity [5]: do not exhibit significantly different distance moved compared to the vehicle
- EC50 [6]: > 10 µM
- IC50 [6]: > 10 µM
- melting point: 142 to 146 °C
- Ability to perform task and maximum reward-induced DA release [7]: not a significant effect on the ability of mice to perform this task or the maximum reward-induced DA release
- DA response curve to sucrose reward [7]: appeared to widen the DA response curve
